Assay results taken from patent US20200392116A1, “SUBSTITUTED HETEROCYCLES AS c-MYC TARGETING AGENTS” (NORTHWESTERN UNIVERSITY, priority 2019, published 2020).
pIC50: −log10 of the molar value. Like-named read-outs stand apart in the source and are kept apart here.

Key:
MV411 cells xenograft = assay: AML xenograft model, combination with Ara-C; format: in vivo, CB17 SCID mice; settings: AML mice xenograft
Protocol: CB17 SCID mice were inoculated with MV411 cells at the density of 5×10^6 suspended in PBS and matrigel (1:1). The mice were randomized based on tumor volume into 6 different groups after the tumor reached ˜200 to 500 mm^3. The mice were treated either with vehicle, NU031, NU975 alone or in combination with cytarabine (Ara-C). […] (See FIG. 17).

[1] = tested on: MYC WT and MYC KO rat fibroblasts; assay: Growth inhibition of wild type and MYC knockout rat fibroblasts; format: cell-based
Source text: We tested the top 13 active compounds in the first screen assay. […] More than half of the tested compounds show better growth inhibitory effect on MYC WT compared to MYC KO cells.

[2] = Potency code of Table 2 (assay not stated)
[3] = Pharmacokinetics in mice after IV dosing; format: in vivo; settings: 5 mg/kg intravenously
Protocol: The pharmacokinetics of NUCC-176242 and NUCC-176248 were studied in mice by administering a dose of 5 mg/kg intravenously and measuring the plasma concentration versus time. (See FIG. 10).
The pharmacokinetics of NUCC-176242 and NUCC-176248 were studied in mice by administering a dose of 5 mg/kg intravenously and measuring the plasma concentration versus time.

MYC/Max binding to DNA = MYC/Max binding to DNA (Homo sapiens, UniProt P01106); assay: Electrophoretic mobility shift assay (EMSA) of MYC/Max binding to DNA
Protocol: We also tested our best hit compound Min9 (NUCC-0176234) and newly synthesized analogs for effects of these compounds on MYC/Max binding to DNA in electrophoretic mobility shift assays (EMSAs). (See FIG. 5a and FIG. 5b). We expected the active compounds to impair MYC/Max binding to DNA. Several structural analogs of Min9 were tested over multiple doses for inhibiting MYC-DNA binding and we observed a dose-dependent inhibition. (See FIG. 5c).

[4] = In vitro metabolism with mouse liver microsomes; format: in vitro ADME; settings: % remaining of compound after 60 min treatment with mouse liver microsomes
Protocol: In vitro metabolism of NUCC-176242 and NUCC-176248 were tested using mouse liver microsomes and a mouse S9 fraction. (See FIG. 9).

[5] = Plasma protein binding (mouse); format: in vitro ADME
MycCap cells = assay: Cell viability of MycCap cells; format: cell-based
PC12 cells = assay: Cell viability / proliferation of PC12 cells (MTS); format: cell-based; settings: Rattus norvegicus, PC-12
Protocol: PC3 prostate cancer cell line with high Myc level and PC12 pheochromocytoma tumor cell line with non functional Max protein, which is not dependent on Myc-Max complex, were phased from ATCC. Cells were plated in 96 well plate at 1000 cells per well, and Myc inhibitor 361 at various concentrations was added to the cells next day. After 3 days of treatment, fresh medium with 361 were added again, and cell viability was measured by MTS assay at day 5 after the treatment. (See FIG. 11).

CMV reporter = CMV reporter assay (control reporter beside the Ebox reporter); format: cell-based; settings: class symbols
[6] = tested on: MYC transcriptional activity (c-Myc E-box-luciferase reporter, MycCap cells); assay: MYC E-box luciferase reporter assay; format: cell-based; settings: Mus musculus, Myc-CaP; class symbols; read-out: Eboc reporter IC50
Protocol: To test the compounds, we evaluated the in silico hits in a MYC E-Box luciferase reporter assay to measure the effects of these compounds (referred to as Min-1 to Min-32) on MYC transcriptional activity. […] (See FIG. 2).
MycCap cells stably expressing luciferase with CMV promoter (MycCap-luc) or c-Myc E-box-luciferase reporter (MycCap Ebox-luc) were plated at 10000 cells per well in 96 well white-wall plate. Serial dilutions of 361 were treated next day. At 4 hours of treatment, luminescence signal was determined immediately after adding 150 μg/ml of Luciferin to the well. (See FIG. 12).

Chain of MYC/Max binding to DNA (P01106 whole entry): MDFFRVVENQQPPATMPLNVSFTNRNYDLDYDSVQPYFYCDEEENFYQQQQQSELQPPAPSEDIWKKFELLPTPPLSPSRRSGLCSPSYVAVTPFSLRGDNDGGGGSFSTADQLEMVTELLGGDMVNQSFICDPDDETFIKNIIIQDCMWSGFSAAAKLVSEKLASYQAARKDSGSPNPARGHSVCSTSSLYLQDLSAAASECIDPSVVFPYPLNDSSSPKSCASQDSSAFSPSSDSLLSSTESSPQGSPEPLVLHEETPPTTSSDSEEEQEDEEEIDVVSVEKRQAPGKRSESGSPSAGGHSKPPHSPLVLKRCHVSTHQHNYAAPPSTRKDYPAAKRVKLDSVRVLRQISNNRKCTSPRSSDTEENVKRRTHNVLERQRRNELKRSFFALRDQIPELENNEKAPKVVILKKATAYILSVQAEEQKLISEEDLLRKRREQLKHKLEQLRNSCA

| SMILES | Potency code [2] | MLM % at 60 min [4] [%] | pIC50 (CMV reporter) | pIC50 [6] | other results |
| --- | --- | --- | --- | --- | --- |
| CCCCOc1ccc(-c2cc(C(F)(F)F)n[nH]2)c(O)c1-c1cc(C(F)(F)F)cc(C(F)(F)F)c1 [NU031] |  |  |  |  | anti-tumor effect in combination with Ara-C (MV411 cells xenograft): significant difference compared to control group |
| Cn1nc(C(F)(F)F)cc1-c1ccc(OCc2ccc(Cl)cc2)c(-c2ccc(Cl)c(C(F)(F)F)c2)c1O [NU975] |  |  |  |  | anti-tumor effect in combination with Ara-C (MV411 cells xenograft): significant difference compared to control group |
| CCc1ccc(Oc2c(-c3ccc(OCc4ccc(Cl)cc4)cc3O)nn(C)c2C(F)(F)F)cc1 [NUCC-0176248] | + (>40 +) |  |  |  | selectivity of growth inhibition, MYC WT versus MYC KO [1]: high specificity; in vivo metabolism (plasma concentration versus time) [3]: correlated well with the observed in vitro metabolism |
| CCc1ccc(Oc2c(-c3ccc(OCc4ccncc4)cc3O)n[nH]c2C(F)(F)F)cc1 [NUCC-0176250] | + (>40 +) |  |  |  | selectivity of growth inhibition, MYC WT versus MYC KO [1]: great selectivity |
| CCc1ccc(Oc2c(-c3ccc(OCc4cccc(Cl)c4)cc3O)n[nH]c2C(F)(F)F)cc1 [NUCC-0196295] | +++ (10-30 +++) |  |  |  | pIC50 (MYC/Max binding to DNA): 4.18 |
| Oc1cc(OCc2ccc(Cl)cc2)ccc1-c1n[nH]c(C(F)(F)F)c1Oc1ccccc1Cl [NUCC-0196342] | ++++ (<10 ++++) | 87.4 |  |  |  |
| Cn1nc(C(F)(F)F)cc1-c1ccc(OCc2ccc(Cl)cc2)c(-c2cc(C(F)(F)F)cc(C(F)(F)F)c2)c1O [NUCC-0196361] | ++++ (<10 ++++) | 72.9 |  |  | fraction unbound [5]: < 0.001 |
| Oc1c(-c2cc(C(F)(F)F)[nH]n2)ccc(OCc2ccc(Cl)cc2)c1-c1ccccc1Cl [NUCC-0196363] | ++++ (<10 ++++) | 88.6 |  |  |  |
| COc1cccc(-c2c(-c3ccc(OCc4ccc(Cl)cc4)cc3O)n[nH]c2C(F)(F)F)c1 [NUCC-0198309] | ++++ (<10 ++++) | 74 |  |  |  |
| Cn1nc(C(F)(F)F)cc1-c1ccc(OCc2ccc(Cl)cc2)c(-c2cccc(C#N)c2)c1O [NUCC-0198399] | ++++ (<10 ++++) | 80.3 |  |  |  |
| CCc1c(OCc2ccc(Cl)cc2)ccc(-c2cc(C(F)(F)F)n[nH]2)c1O [NUCC-0200739] | + (>40 +) | 46.4 |  |  |  |
| CCOC(=O)c1cc(-c2ccc(OCc3ccc(Cl)cc3)c(-c3cc(C(F)(F)F)cc(C(F)(F)F)c3)c2O)n[nH]1 [NUCC-0200972] | + (>40 +) | 60.3 |  |  | fraction unbound [5]: < 0.001 |
| Cn1nc(C(F)(F)F)cc1-c1ccc(OCc2ccc(Cl)cc2)cc1C=O [NUCC-0200976] | + (>40 +) | 21.8 |  |  | fraction unbound [5]: < 0.001 |
| Oc1c(-c2cc(C(F)(F)F)n[nH]2)ccc(OCCN2CCCC2)c1-c1cc(C(F)(F)F)cc(C(F)(F)F)c1 [NUCC-0201032] | + (>40 +) | 30.5 |  |  | fraction unbound [5]: < 0.001 |
| CCCCCCOc1ccc(-c2cc(C(F)(F)F)n[nH]2)c(O)c1-c1cc(C(F)(F)F)cc(C(F)(F)F)c1 [NUCC-0201196] | +++ (10-30 +++) | 66.6 |  |  |  |
| CC(C)CCOc1ccc(-c2cc(C(F)(F)F)n[nH]2)c(O)c1-c1cc(C(F)(F)F)cc(C(F)(F)F)c1 [NUCC-0201198] | +++ (10-30 +++) |  |  |  | pIC50 (MycCap cells; Mus musculus, Myc-CaP): 5.59; pIC50 (PC12 cells): 5.09 |
| O=C1CCC(N2C(=O)c3cccc(OCc4cn(CCOCCOCCOCCOCC(=O)Nc5ccc(COc6ccc(-c7cc(C(F)(F)F)n[nH]7)c(O)c6-c6cc(C(F)(F)F)cc(C(F)(F)F)c6)cc5)nn4)c3C2=O)C(=O)N1 (stereo not drawn) [NUCC-0201203] | ++ (30-40 ++) |  |  |  | pIC50 (MycCap cells): 4.49 |

| SMILES | Potency code [2] | MLM % at 60 min [4] [%] | pIC50 (CMV reporter) | pIC50 [6] | other results |
| --- | --- | --- | --- | --- | --- |
| CCCCCCOc1ccc(-c2cc(C(F)(F)F)nn2C)c(O)c1-c1cncc(C#N)c1 [NUCC-0201207] | +++ (10-30 +++) | 52.7 |  |  |  |
| CCCCOc1ccc(-c2cc(C(F)(F)F)n(C)n2)c(O)c1-c1cncc(C(F)(F)F)c1 [NUCC-0201209] | + (>40 +) | 10.3 |  |  |  |
| Oc1c(-c2cc(C(F)(F)F)[nH]n2)ccc(Oc2ccc(Cl)cc2)c1-c1cc(C(F)(F)F)cc(C(F)(F)F)c1 [NUCC-0201223] | ++++ (<10 ++++) | 75.8 |  |  |  |
| Cn1nc(C(F)(F)F)cc1-c1ccc(CNc2ccc(Cl)c(C(F)(F)F)c2)cc1O [NUCC-0202980] |  |  | 4.30 to 5.00 | 4.30 to 5.00 |  |
| Cn1nc(-c2ccc(CNc3ccc(Cl)c(C(F)(F)F)c3)cc2O)cc1C(F)(F)F [NUCC-0202981] |  |  | < 4.30 | 4.30 to 5.00 |  |
| Cn1nc(C(F)(F)F)cc1-c1ccc(C(=O)Nc2ccc(Cl)c(C(F)(F)F)c2)cc1O [NUCC-0202984] |  |  | 4.30 to 5.00 | > 5.30 |  |
| Cn1nc(-c2ccc(C(=O)Nc3ccc(Cl)c(C(F)(F)F)c3)cc2O)cc1C(F)(F)F [NUCC-0202985] |  |  | < 4.30 | < 4.30 |  |
| Oc1c(-c2cc(C(F)(F)F)n[nH]2)c(Cl)cc(OCc2ccc(Cl)cc2)c1-c1ccc(Cl)c(C(F)(F)F)c1 [NUCC-0202986] |  |  | 4.30 to 5.00 | > 5.30 |  |
| Cn1nc(C(F)(F)F)cc1-c1c(Cl)cc(OCc2ccc(Cl)cc2)c(-c2ccc(Cl)c(C(F)(F)F)c2)c1O [NUCC-0202987] |  |  | < 4.30 | > 5.30 |  |
| Cn1nc(-c2c(Cl)cc(OCc3ccc(Cl)cc3)c(-c3ccc(Cl)c(C(F)(F)F)c3)c2O)cc1C(F)(F)F [NUCC-0202988] |  |  | < 4.30 | < 4.30 |  |
| CN(C(=O)c1ccc(-c2cc(C(F)(F)F)n[nH]2)c(O)c1)c1ccc(Cl)c(C(F)(F)F)c1 [NUCC-0202989] |  |  | 4.30 to 5.00 | 4.30 to 5.00 |  |
| CN(C(=O)c1ccc(-c2cc(C(F)(F)F)nn2C)c(O)c1)c1ccc(Cl)c(C(F)(F)F)c1 [NUCC-0202990] |  |  | < 4.30 | 4.30 to 5.00 |  |
| CN(C(=O)c1ccc(-c2cc(C(F)(F)F)n(C)n2)c(O)c1)c1ccc(Cl)c(C(F)(F)F)c1 [NUCC-0202991] |  |  | < 4.30 | 4.30 to 5.00 |  |
| O=C(Nc1ccc(Cl)c(C(F)(F)F)c1)c1ccc(-c2cc(C(F)(F)F)n[nH]2)c(O)c1 [NUCC-0202992] |  |  | 4.30 to 5.00 | 5.00 to 5.30 |  |
| Oc1cc(CNc2ccc(Cl)c(C(F)(F)F)c2)ccc1-c1cc(C(F)(F)F)n[nH]1 [NUCC-0202993] |  |  | 4.30 to 5.00 | 5.00 to 5.30 |  |
| Cn1nc(C(F)(F)F)cc1-c1ccc(OCc2ccc(Cl)cc2)c(-c2ccc(Cl)c(C(F)(F)F)c2)c1O [compound 975] |  |  |  |  | anti-tumor effect in combination with Ara-C (MV411 cells xenograft): significant synergic anti-tumor effect |
